Experimental data taken from US6147076A, “Analogues of N-acetylardeemin, method of preparation and uses thereof” (priority 1996, dated 2000).
Where “and” joins values, the source holds several entries; their conditions need not be identical. Identical values can stand only once. Like-named read-outs stand apart in the source and are kept apart here.

Columns and labels:
CCRF-CEM cells [1] = experiment: Cytotoxicity / growth inhibition of CCRF-CEM leukemic cells; settings: Homo sapiens
CCRF-CEM/VLB-100 cells = experiment: Intracellular accumulation of [3H]vinblastine in CCRF-CEM/VLB-100 cells; assay type: cell-based, human; settings: 30 μM
Method: (§1) *Cells were preloaded with [^3 H]
(§2) times (or without wash) with 100 ml cold medium to remove extracellular
(§3) with or without a reverse prenyl compound or an MDRreversing agent. Cells
(§4) were then separated from radioactive medium by microfuge oillayer method.
(§5) Extracellular space counts carried down # by cells (^3 HInulin space
(§6) were subtracted from the total radioactive counts.

P388/O tumor = experiment: Combination therapy of adriamycin & 5-N-acetyl-ardeemin or verapamil in B6D2F1 mice bearing P388/O tumor; settings: 5NAc-Ardm 70 mg/kg;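 also: male BDF mice carrying P388/O given intraperitoneally, dosing begun on day 1 on a QDX4, QWX2 schedule, five animals per dose level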
Source text: ^a Male BDF mice were inoculated P388/O, 10^6 cells/mouse, i.p. a
starting day 1, QDX4, QWX2.

[2] = tested on: vinblastine-resistant CCRF-CEM cells (CCRF-CEM/VBL100); experiment: Two drug combination study of vinblastine and 5-N-acetylardeemin on vinblastine-resistant CCRF-CEM, 72 hr, XTT assay; assay type: cell-based, human
Source text: Vinblastine-resistant CCRF-CEM Cell Line at 72-HR Exposure Time.
Based on XTT Assay. (large-scale study)

P388/0 = experiment: Survival time evaluation for BDF mice bearing P388/0; settings: for survival time: individual mice
Source text: ^a Male BDF mice were inoculated with p388/0, 10E6 cells/mouse, I.P.

Solubility = assay type: physicochemical; settings: at concentrations higher than […]
DC-3F hamster lung cells = experiment: Cytotoxicity toward DC-3F hamster lung cells; settings: Mesocricetus auratus, DC3F
CCRF-CEM cells [3] = experiment: Accumulation of VP-16 in CCRF-CEM cells preloaded with [3H]VP-16; settings: Homo sapiens, 0.5 h, read-out: increase of intracellular accumulation of VP-16
P388 leukemic cells = experiment: Drug combination of adriamycin and 5-N-acetyl-ardeemin against P388 cell growth (XTT); settings: Mus musculus, P388, drug alone
Source text: microplate, 15,000 cell/well, N = 2. Platting cells on day 1, add drugs o
day 2 and XTT assay on day 5.

P388/DX leukemic cells = experiment: Drug combination of adriamycin and 5-N-acetyl-ardeemin against P388/DX cell growth (XTT); assay type: cell-based; settings: drug alone
Source text: | microplate, 25,000 cell/well, N = 2.

CCRF-CEM/VBL100 cells = experiment: cells; settings: Homo sapiens
CCRF-CEM cells [4] = experiment: Influx of [3H]VP-16 in CCRF-CEM cells; assay type: cell-based, human; settings: Homo sapiens, CCRF-CEM, 0.5 h, read-out: increase of VP-16 accumulation
[5] = Cytotoxicity (XTT, 72 hr) in HCT116 cells; settings: human
Method: All drug exposures were for 72 hr and cytotoxicity was measured by XTT tetrazolium dye assay.

[6] = tested on: vinblastine-resistant CCRF-CEM cells (CCRF-CEM/VBL100); experiment: Two drug combination study of vinblastine and 5-N-acetylardeemin on vinblastine-resistant CCRF-CEM, 72 hr, XTT assay; assay type: cell-based, human; design: dose of drug at FA (drug alone): unit not given here; settings: for Dose reduction index / dose of drug at FA (drug alone): Table 3
CCRF-CEM cells [7] = experiment: Two drug combination study of vinblastine and 5-N-acetylardeemin on CCRF-CEM, 72 hr, XTT assay; assay type: cell-based; settings: Homo sapiens, Table 2, drug alone, read-out: Dm (median-effect concentration)
Source text: CCRF-CEM Cell Line at 72-HR Exposure Time. Based on XTT

P388/DX = experiment: Survival time evaluation for BDF mice bearing P388/DX; settings: for survival time: individual mice
CCRF/VM-1 cells = experiment: Intracellular accumulation of VP-16 in CCRF/VM-1 cells; settings: Homo sapiens, 0.5 h, read-out: increase of VP-16 accumulation
DC-3F/ADX cells = experiment: Cytotoxicity toward DC-3F/ADX cells; assay type: cell-based, hamster
P388/DX tumor = experiment: Combination therapy of adriamycin & 5-N-acetyl-ardeemin or verapamil in B6D2F1 mice bearing P388/DX tumor;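 also: male BDF mice implanted intraperitoneally with P388/DX cells, 10^6 per mouse, dosed from day 1 on a QDX4, QWX2 schedule, five mice per dose group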; settings: 5NAc-Ard. 70 mg/kg
Source text: ^a Male BDF mice were inoculated P388/DX, 10^6 cells/mouse, i.p.
starting day 1, QDX4, QWX2. There were five mice at every dose and ten

CCRF-CEM/VM-1 cells = experiment: Cytotoxicity toward VM-26-resistant CCRF-CEM/VM-1 cells (mutated Topo II gene); assay type: cell-based, human; settings: Homo sapiens, CCRF-CEM, read-out: IC50 of reversing agent
CCRF-CEM cells [8] = experiment: Intracellular accumulation of [3H]vinblastine in CCRF-CEM cells; assay type: cell-based, human; settings: 30 μM
Method: as §1, §2, §3, §4, §5, §6

[9] = tested on: KBV-1 (vinblastine resistant) tumor cell lines; settings: in words; cited from earlier work
DC-3F/ADII cells [10] = experiment: cells; settings: Mesocricetus auratus, DC3F
DC-3F/ADII cells [11] = tested on: DC-3F/ADII cells
[12] = apparently through calcium antagonism; cited from earlier work
[13] = read-out: IC50 for inhibiting cell growth, Table 7, DC-3F/SDII

Work on C=CC(C)(C)C12CC3c4nc5ccccc5c(=O)n4C(C)C(=O)N3C1N(C(C)=O)c1ccccc12 (centres unmarked) [5-N-Acetylardeemin] yielded an IC50 (CCRF-CEM cells [1]; Table 6, CCRF-CEM) of 17.2 µM, an IC50 (CCRF-CEM cells [1]; human leukemic CCRF-CEM cells) of 29.8 µM and an IC50 (CCRF-CEM cells [1]; read-out: IC50 of reversing agent, Table 6B, CCRF-CEM) of 29.2 µM. For the same compound, the “[3H]vinblastine accumulation” value (CCRF-CEM/VLB-100 cells; washed) was 12.78 fmole/10^3 cells, the “[3H]vinblastine accumulation” value (CCRF-CEM/VLB-100 cells; without wash) was 35.44 fmole/10^3 cells and the “% ILS” value (P388/O tumor) was “+2%”. The MST (P388/O tumor) was 7.75 days, the Days survived (P388/O tumor; individual mice 1-5) was 8.5 days and 7.0 days and 8.25 days and 6.5 days and the “dose reduction in combination” value ([2]; 1:2000 ratio, at 98.4% inhibition) was 55 fold. For the same compound, the IC50 ([2]; Homo sapiens, CCRF-CEM, Table 4 (large-scale study), drug alone, read-out: Dm (median-effect concentration)) was 29.8 µM, the “% ILS” value (P388/0; 5N-acetylardeemin 3.33 mg/kg) was -2% and the MST (P388/0; 5N-acetylardeemin 3.33 mg/kg) was 7.25. For the same compound, the survival time (P388/0; 5N-acetylardeemin 3.33 mg/kg) was 6.0 and 7.0 and 8.0, the “% ILS” value (P388/0; 5N-acetylardeemin 10 mg/kg) was -10% and the MST (P388/0; 5N-acetylardeemin 10 mg/kg) was 6.67. For the same compound, the survival time (P388/0; 5N-acetylardeemin 10 mg/kg) was 60. and 6.5 and 7.5, the “% ILS” value (P388/0; 5N-acetylardeemin 30 mg/kg) was -16% and the MST (P388/0; 5N-acetylardeemin 30 mg/kg) was 6.25. The survival time (P388/0; 5N-acetylardeemin 30 mg/kg) was 6.0 and 6.5, the solubility (Solubility) was “diminished solubility” and the IC50 (DC-3F hamster lung cells; read-out: IC50 (A), mean ± spread, mean of the determinations) was 7.51 ± 2.58 µM. For the same compound, the IC50 (DC-3F hamster lung cells; read-out: IC50 for inhibiting cell growth, Table 7, DC-3F) was 3.74 µM, the IC50 (DC-3F hamster lung cells; relative cytotoxicity, DC-3F) was 5.06 µM and the fold induction at 30 µM (CCRF-CEM cells [3]) was 3.9. For the same compound, the IC50 (P388 leukemic cells) was 43.7 µM, the IC50 (P388/DX leukemic cells) was 65.9 µM and the IC50 (CCRF-CEM/VBL100 cells; Table 6, CCRF-CEM/VBL) was 6.99 µM. The IC50 (CCRF-CEM/VBL100 cells; read-out: IC50 of reversing agent, Table 6B, CCRF-CEM/VBL) was 18.1 µM, the activation at 30 µM (CCRF-CEM cells [4]) was 66% and the MNTC at 72 h [5] was at least 2200 nM. The IC50 ([6]; Homo sapiens, CCRF-CEM, Table 3, drug alone, read-out: Dm (median-effect concentration)) was 19.4 µM, the Dose reduction index ([6]; FA .9843) was 55.57 and the “dose of drug at FA (drug alone)” value ([6]; FA .9843) was 555.6899. The Dose reduction index ([6]; FA .9861) was 61.43, the “dose of drug at FA (drug alone)” value ([6]; FA .9861) was 614.2689 and the Dose reduction index ([6]; FA .9898) was 79.19. The “dose of drug at FA (drug alone)” value ([6]; FA .9898) was 791.8969, the IC50 (CCRF-CEM cells [7]) was 18.8 µM and the “% ILS” value (P388/DX; 5N-acetylardeemin 3.33 mg/kg) was 5%. For the same compound, the MST (P388/DX; 5N-acetylardeemin 3.33 mg/kg) was 7.63, the survival time (P388/DX; 5N-acetylardeemin 3.33 mg/kg) was 6.5 and 7.0 and 8.0 and 9.0 and the “% ILS” value (P388/DX; 5N-acetylardeemin 10 mg/kg) was 2%. For the same compound, the MST (P388/DX; 5N-acetylardeemin 10 mg/kg) was 7.42, the survival time (P388/DX; 5N-acetylardeemin 10 mg/kg) was 7.0 and 7.25 and 8.0 and the “% ILS” value (P388/DX; 5N-acetylardeemin 30 mg/kg) was -7%. For the same compound, the MST (P388/DX; 5N-acetylardeemin 30 mg/kg) was 6.75, the survival time (P388/DX; 5N-acetylardeemin 30 mg/kg) was 6.5 and 7.0 and the fold induction at 30 µM (CCRF/VM-1 cells) was 1.95. The IC50 (DC-3F/ADX cells; DC3F/ADX, DC-3F/ADX) was 3.69 µM, the “(C)/(A)” value (DC-3F/ADX cells; IC50 ratio DC-3F/ADX to DC-3F, * collaterally sensitive) was 0.49 X and the “% ILS” value (P388/DX tumor) was 0%. For the same compound, the MST (P388/DX tumor) was 7.55 days, the Days survived (P388/DX tumor; individual mice 1-5) was 6.5 days and 7.25 days and 8.0 days and the IC50 (CCRF-CEM/VM-1 cells) was 39.4 µM. For the same compound, the “[3H]vinblastine accumulation” value (CCRF-CEM cells [8]; washed) was 32.73 fmole/10^3 cells, the “[3H]vinblastine accumulation” value (CCRF-CEM cells [8]; without wash) was 37.45 fmole/10^3 cells and the “reversal of multidrug resistance” value [9] was “one of the most potent known agents for reversal of multidrug resistance”. For the same compound, the IC50 (DC-3F/ADII cells [10]; read-out: IC50 (B), DC-3F/ADII) was 16.8 µM, the IC50 (DC-3F/ADII cells [10]; [13]) was 1.07 µM and the “(B)/(A)” value (DC-3F/ADII cells [11]; IC50 ratio DC-3F/ADII to DC-3F, * collaterally sensitive) was 2.2 X. For the same compound, the IC50 (DC-3F/ADII cells [11]; [13]) was 1.59 µM.

For C=CC(C)(C)[C@@]12C[C@H]3C(=O)N4[C@@H](C[C@@]5(C(C)(C)C=C)c6ccccc6N[C@@H]45)C(=O)N3[C@@H]1Nc1ccccc12 [Amauromine, amauromine], the vasodilator activity [12] is given as “vasodilator”.
